Consider twelve molecules from patent US20140243322A1, “BIVALENT BROMODOMAIN LIGANDS, AND METHODS OF USING SAME” (Coferon, Inc., priority 2011, published 2014).

Test [1] has as its system MV4-11 cells. The test is described as follows: Inhibition of MV4-11 cell proliferation (Cell-Titer Glo). In kind it is cell-based. To be noted: Homo sapiens, 72 hours of growth, read-out: GI50 range. Here is the method:
Inhibition of MV4-11 Cell Proliferation.
MV4-11 cells (5000 cells in 50 μl volumes) in growth medium containing 10% FBS and 1% Pen/Strep were plated and grown overnight in 96 well plates and treated the next day with 3-fold dilutions of test compounds or with DMSO vehicle. After 72 hours of growth, 30 ul of Cell-Titer Glo reagent (Promega) was added to the wells and the plates incubated for 30 minutes. Luminescence was measured on a Spectramax M5 plate reader and GI50 values were calculated for each test compound.

Test [2] has as its system Myc mRNA. Briefly: Inhibition of Myc expression (Myc mRNA) in MV4-11 cells. To be noted: Homo sapiens, 4 hours of treatment, read-out: EC50 range, Myc mRNA normalized to GAPDH mRNA. It is filed as cell-based. From the text:
Inhibition of Myc Expression.

On to `CCNC(=O)C[C@@H]1N=C(c2ccc(Cl)cc2)c2cc(OCCNC(=O)C[C@@H]3N=C(c4ccc(Cl)cc4)c4cc(OC)ccc4-n4c(C)nnc43)ccc2-n2c(C)nnc21` [BRD-B-01, N-(2-(((S)-6-(4-chlorophenyl)-4-(2-(ethylamino)-2-oxoethyl)-1-methyl-4H-benzo[f][1,2,4]triazolo[4,3-a][1,4]diazepin-8-yl)oxy)ethyl)-2-((S)-6-(4-chlorophenyl)-8-methoxy-1-methyl-4H-benzo[f][1,2,4]triazolo[4,3-a][1,4]diazepin-4-yl)acetamide], for which the GI50 in test [1] is 100 to 30000 nM. Turning to `CCNC(=O)C[C@@H]1N=C(c2ccc(Cl)cc2)c2cc(OCCOCCOCCNC(=O)C[C@@H]3N=C(c4ccc(Cl)cc4)c4cc(OC)ccc4-n4c(C)nnc43)ccc2-n2c(C)nnc21` [BRD-B-04, N-(2-(2-(2-(((S)-6-(4-chlorophenyl)-4-(2-(ethylamino)-2-oxoethyl)-1-methyl-4H-benzo[f][1,2,4]triazolo[4,3-a][1,4]diazepin-8-yl)oxy)ethoxy)ethoxy)ethyl)-2-((S)-6-(4-chlorophenyl)-8-methoxy-1-methyl-4H-benzo[f][1,2,4]triazolo[4,3-a][1,4]diazepin-4-yl)acetamide], the GI50 in test [1] lay within 0.1 to 30 nM. Moreover, in test [2], the EC50 fell in the range of 0.1 to 30 nM. Take `CCNC(=O)C[C@@H]1N=C(c2ccc(Cl)cc2)c2cc(OCCOCCOCCOCCNC(=O)C[C@@H]3N=C(c4ccc(Cl)cc4)c4cc(OC)ccc4-n4c(C)nnc43)ccc2-n2c(C)nnc21` [BRD-B-05, N-(2-(2-(2-(2-(((S)-6-(4-chlorophenyl)-4-(2-(ethylamino)-2-oxoethyl)-1-methyl-4H-benzo[f][1,2,4]triazolo[4,3-a][1,4]diazepin-8-yl)oxy)ethoxy)ethoxy)ethoxy)ethyl)-2-((S)-6-(4-chlorophenyl)-8-methoxy-1-methyl-4H-benzo[f][1,2,4]triazolo[4,3-a][1,4]diazepin-4-yl)acetamide]: in test [1], the GI50 lay within 0.1 to 30 nM. Also, the EC50 in test [2] lay in the range of 30 to 100 nM. Taken in the same sequence, the figures for `COc1ccc2c(c1)C(c1ccc(Cl)cc1)=N[C@@H](CC(=O)NCCNC(=O)NCCNC(=O)C[C@@H]1N=C(c3ccc(Cl)cc3)c3cc(OC)ccc3-n3c(C)nnc31)c1nnc(C)n1-2` [BRD-B-06, (S)—N,N′-((carbonylbis(azanediyl))bis(ethane-2,1-diyl))bis(2-((S)-6-(4-chlorophenyl)-8-methoxy-1-methyl-4H-benzo[f][1,2,4]triazolo[4,3-a][1,4]diazepin-4-yl)acetamide)] were 100 to 30000 nM and 100 to 30000 nM. Taken in the same sequence, the figures for `COc1ccc2c(c1)C(c1ccc(Cl)cc1)=N[C@@H](CC(=O)NCCNC(=O)CNC(=O)C[C@@H]1N=C(c3ccc(Cl)cc3)c3cc(OC)ccc3-n3c(C)nnc31)c1nnc(C)n1-2` [BRD-B-07, 2-((S)-6-(4-chlorophenyl)-8-methoxy-1-methyl-4H-benzo[f][1,2,4]triazolo[4,3-a][1,4]diazepin-4-yl)-N-(2-(2-(2-((S)-6-(4-chlorophenyl)-8-methoxy-1-methyl-4H-benzo[f][1,2,4]triazolo[4,3-a][1,4]diazepin-4-yl)acetamido)acetamido)ethyl)acetamide] were 100 to 30000 nM and 100 to 30000 nM. The matching figures for `COc1ccc2c(c1)C(c1ccc(Cl)cc1)=N[C@@H](CC(=O)NCCNC(=O)CNC(=O)CNC(=O)C[C@@H]1N=C(c3ccc(Cl)cc3)c3cc(OC)ccc3-n3c(C)nnc31)c1nnc(C)n1-2` [BRD-B-08, 2-((S)-6-(4-chlorophenyl)-8-methoxy-1-methyl-4H-benzo[f][1,2,4]triazolo[4,3-a][1,4]diazepin-4-yl)-N-(2-(2-(2-(2-((S)-6-(4-chlorophenyl)-8-methoxy-1-methyl-4H-benzo[f][1,2,4]triazolo[4,3-a][1,4]diazepin-4-yl)acetamido)acetamido)acetamido)ethyl)acetamide]: 100 to 30000 nM and 100 to 30000 nM.

In the case of `COc1ccc2c(c1)C(c1ccc(Cl)cc1)=N[C@@H](CC(=O)NCCNC(=O)CNC(=O)NCCNC(=O)C[C@@H]1N=C(c3ccc(Cl)cc3)c3cc(OC)ccc3-n3c(C)nnc31)c1nnc(C)n1-2` [BRD-B-09], the GI50 in test [1] lay within 100 to 30000 nM. Further, the EC50 in test [2] was 100 to 30000 nM. Consider `COc1ccc2c(c1)C(c1ccc(Cl)cc1)=N[C@@H](CC(=O)NCc1cccc(C3CCN(C(=O)C[C@@H]4N=C(c5ccc(Cl)cc5)c5cc(OC)ccc5-n5c(C)nnc54)CC3)c1)c1nnc(C)n1-2` [BRD-B-10, 2-((S)-6-(4-chlorophenyl)-8-methoxy-1-methyl-4H-benzo[f][1,2,4]triazolo[4,3-a][1,4]diazepin-4-yl)-N-(3-(1-(2-((S)-6-(4-chlorophenyl)-8-methoxy-1-methyl-4H-benzo[f][1,2,4]triazolo[4,3-a][1,4]diazepin-4-yl)acetyl)piperidin-4-yl)benzyl)acetamide], for which the concentration for 50% growth inhibition (GI50) in test [1] was in the range of 100 to 30000 nM.

As to `COc1ccc2c(c1)C(c1ccc(Cl)cc1)=N[C@@H](CC(=O)NCC(=O)NCCNC(=O)CNC(=O)C[C@@H]1N=C(c3ccc(Cl)cc3)c3cc(OC)ccc3-n3c(C)nnc31)c1nnc(C)n1-2` [BRD-B-11, (S)—N,N′-(ethane-1,2-diyl)bis(2-(2-((S)-6-(4-chlorophenyl)-8-methoxy-1-methyl-4H-benzo[f][1,2,4]triazolo[4,3-a][1,4]diazepin-4-yl)acetamido)acetamide)], in test [1], the GI50 fell in the range of 100 to 30000 nM. Also, the EC50 in test [2] lay within 100 to 30000 nM. For the molecule `CCNC(=O)C[C@@H]1N=C(c2ccc(Cl)cc2)c2cc(OCCOCCOCCOCCOCCNC(=O)C[C@@H]3N=C(c4ccc(Cl)cc4)c4cc(OC)ccc4-n4c(C)nnc43)ccc2-n2c(C)nnc21` [BRD-B-12, N-(14-(((4S)-6-(4-chlorophenyl)-4-(2-(ethylamino)-2-oxoethyl)-1-methyl-4H-benzo[f][1,2,4]triazolo[4,3-a][1,4]diazepin-8-yl)oxy)-3,6,9,12-tetraoxatetradecyl)-2-((4S)-6-(4-chlorophenyl)-8-methoxy-1-methyl-4H-benzo[f][1,2,4]triazolo[4,3-a][1,4]diazepin-4-yl)acetamide], the GI50 in test [1] was in the range of 0.1 to 30 nM. Besides, the EC50 in test [2] is 30 to 100 nM. With `CCNC(=O)C[C@@H]1N=C(c2ccc(Cl)cc2)c2cc(OCCOCCOCCOCCOCCOCCOCCOCCOCCOCCNC(=O)C[C@@H]3N=C(c4ccc(Cl)cc4)c4cc(OC)ccc4-n4c(C)nnc43)ccc2-n2c(C)nnc21` [BRD-B-21, N-(29-(((4S)-6-(4-chlorophenyl)-4-(2-(ethylamino)-2-oxoethyl)-1-methyl-4H-benzo[f][1,2,4]triazolo[4,3-a][1,4]diazepin-8-yl)oxy)-3,6,9,12,15,18,21,24,27-nonaoxanonacosyl)-2-((4S)-6-(4-chlorophenyl)-8-methoxy-1-methyl-4H-benzo[f][1,2,4]triazolo[4,3-a][1,4]diazepin-4-yl)acetamide], the EC50 in test [2] was 100 to 30000 nM. Take `Cc1ccc(-c2c(C)noc2C)cc1S(=O)(=O)NCCOCCOCCNS(=O)(=O)c1cc(-c2c(C)noc2C)ccc1C` [BRD-B-76, N,N′-((ethane-1,2-diylbis(oxy))bis(ethane-2,1-diyl))bis(5-(3,5-dimethylisoxazol-4-yl)-2-methylbenzenesulfonamide)]: the EC50 in test [2] lay in the range of 100 to 30000 nM.

Usually GI50 stands for the concentration giving 50% growth inhibition. What is called EC50 is the concentration that produces a half-maximal response.
